The test deals with male obese ZSF1 rats. Description: Treatment of male obese ZSF1 rats for 26 weeks with 2-hydroxyestradiol: body weight, food intake, metabolic cage and plasma parameters. The format is in vivo, rat. The source says:
Twenty 12-week-old male obese ZSF1 rats (Genetic Models Inc., Indianapolis, Ind.) were used. Obese ZSF1 rats were developed by crossing lean female Zucker Diabetic Fatty rats (ZDF +/fa) and lean male Spontaneously Hypertensive Heart Failure rats (SHHF/Mcc-fa^cp, +/cp). As recently described by Tofovic, S. P., et al., Renal Failure 22: 387 (2000) the disclosure of which is incorporated herein by reference, compared with several different rat strains including Wistar-Kyoto normotensive rats, spontaneously hypertensive rats and obese SHHF/Mcc-fa^cp rats, obese ZSF1 rats have the metabolic syndrome (i.e., hypertension, diabetes and hyperlipidemia), left ventricular dysfunction, and develop nephropathy as characterized by massive proteinuria, abnormal renal histopathology (glomerulosclerosis and severe tubulointerstitial and vascular changes) and reduced glomerular filtration rate. Thus, this rat strain develops obesity, the metabolic syndrome and the end-organ sequelae associated with the metabolic syndrome.
At baseline, animals were placed in metabolic cages and food intake, water intake, urine output and urinary excretion of proteins (bicinchoninic acid method) and glucose (Infinity™ Glucose Reagent, Sigma Diagnostics, St Louis, Mo.) were determined. Next, osmotic mini pumps infusing either vehicle (polyethylene glycol 400, 2.5 ul/hour) or 2-hydroxyestradiol (10 ug/kg/hour) were implanted subcutaneously (random assignment). Minipumps were replaced every 33 days. Metabolic cage studies were repeated 12 and 24 weeks after initiation of treatments. After 9 and 25 weeks of treatment, animals were fasted overnight, and blood samples (tail vein) for measurement of cholesterol were taken. Plasma samples were analyzed in duplicates for cholesterol levels (Sigma Diagnostics, St. Louis, Mo.). After 26 weeks of treatment, animals were fasted overnight, an oral glucose tolerance test was conducted and total glycated hemoglobin levels were determined (Sigma Diagnostics). Plasma glucose levels were measured with the Precision Q.I.D. Blood Glucose Test Strips kit (Medisense, Inc., Bedford, Mass.).
All values refer to means±SEM for 9 to 10 animals in each group. Statistical significance was calculated using either an unpaired Student's t-test or a 2-factor analysis of variance (repeated measures) followed by a Fisher's Least Significance Difference test if appropriate. The criterion of significance was p<0.05.

[1] abbreviates: 10 ug/kg/hour s.c., 12 weeks of treatment.
Where [2] appears, read: 10 ug/kg/hour s.c., 24 weeks of treatment.
Where [3] appears, read: Table 1, after approximately 6 months of treatment.

Entries after “also recorded” stand apart in the source; their conditions may differ.

Regarding `C[C@]12CC[C@@H]3c4cc(O)c(O)cc4CC[C@H]3[C@@H]1CC[C@@H]2O` [2-hydroxyestradiol, estra-1,3,5 (10)-triene-2,3,1 7-triol (17β)], the Body weight (10 ug/kg/hour s.c. osmotic minipump, 12 weeks of treatment, mean±SEM) is reported as 545±13 grams. The compound further gave a Body weight (10 ug/kg/hour s.c. osmotic minipump, 26 weeks of treatment, mean±SEM) of 571±13 grams. Also, the “Hypercholesterolemia (plasma cholesterol)” value (10 ug/kg/hour s.c., 9 weeks of treatment, fasted overnight) worked out at 151±9 mg cholesterol/100 ml. Under setting [1], the Food intake was 26.4±1.3 grams/day, the Glucosuria is 0.2±0.2 grams glucose/day, the Polydipsia is recorded as 40.1±4.0 mls of water consumed/day and the Polyuria was 23.6±2.4 mls of urine/day. Under setting [2], the Food intake worked out at 36.6±0.9 grams/day, the Glucosuria came out at 1.7±0.5 grams glucose/day, the Polydipsia is 67.4±4.5 mls of water consumed and the Polyuria was 45.6±3.8 mls of urine/day. Also, the “Hypercholesterolemia (plasma cholesterol)” value (10 ug/kg/hour s.c., 25 weeks of treatment, fasted overnight) amounted to 247±28 mg cholesterol/100 ml. In addition, the Glycated hemoglobin (10 ug/kg/hour s.c., 26 weeks into the study) turned out to be 3.8±0.7%. Also, the “Oral glucose tolerance test: plasma glucose 2 hours after an oral dose of 2 grams of glucose per kg body weight” value (10 ug/kg/hour s.c., 26 weeks of treatment, fasted overnight) turned out to be 265±13 mg/100 ml. Further, the “Progression of proteinuria (urinary protein excretion, FIG. 1)” value (10 ug/kg/hour s.c., baseline, 12 and 24 weeks, versus vehicle) is “significant (p<0.001) effect of time and treatment; also recorded: attenuated the progression of proteinuria”. Also, under setting [3], the “Food intake” value worked out at 36.6 ± 0.9 grams, the “Glycated hemoglobin” value was determined as 3.8 ± 0.7%, the “Plasma Cholesterol” value was found to be 247 ± 28 mg/100 ml and the “Plasma Glucose 2 Hours After Oral Glucose Load of 2 g/kg” value is 265 ± 13 mg/100 ml. Moreover, under setting [3], the “Urinary Glucose Excretion” value worked out at 1.7 ± 0.5 grams/day, the “Urinary Protein Excretion” value stood at 333 ± 21 mg/day, the “Urine Volume” value amounted to 45.6 ± 3.8 mL/day and the “Water Intake” value was found to be 67.4 ± 4.5 mL/day. Moreover, where the note is “Table 1, after approximately 6 months of treatment, mean ± SEM”, the “Body weight” value came out at 571 ± 11 grams.

The values are drawn from patent US6998395B2, “Administration of estradiol metabolites for the treatment or prevention of obesity, metabolic syndrome, diabetes, and vascular and renal disorders” (University of Pittsburg,, priority 2001, dated 2006).
